We go through 26 compounds from ChEMBL document CHEMBL1129763, “Acylhydrazones as M1/M3 selective muscarinic agonists” (Bioorg Med Chem Lett, 1996).

Structures are written as SMILES.

The first test concerns the target T1, Muscarinic acetylcholine receptor M1 (Rattus norvegicus, UniProt P08482).
T1 sequence (P08482 whole entry): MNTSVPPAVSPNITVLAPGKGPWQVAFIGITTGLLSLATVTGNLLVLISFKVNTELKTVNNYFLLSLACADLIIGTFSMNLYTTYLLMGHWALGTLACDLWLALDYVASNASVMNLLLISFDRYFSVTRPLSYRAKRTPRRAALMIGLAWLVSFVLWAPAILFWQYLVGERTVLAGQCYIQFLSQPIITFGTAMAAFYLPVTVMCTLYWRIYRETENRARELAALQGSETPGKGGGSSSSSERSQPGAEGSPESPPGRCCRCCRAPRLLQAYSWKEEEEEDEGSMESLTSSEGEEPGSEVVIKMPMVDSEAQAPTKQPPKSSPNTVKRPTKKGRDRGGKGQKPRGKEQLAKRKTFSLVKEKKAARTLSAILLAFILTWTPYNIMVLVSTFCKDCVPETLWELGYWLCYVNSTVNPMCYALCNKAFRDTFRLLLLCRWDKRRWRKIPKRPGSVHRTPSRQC
Put plainly: Ability to displace [3H]- pirenzepine from M1 receptor in rat hippocampal membranes. The test is classed as cell membranes, Hippocampus.
`CCCCCCCC(=O)N/N=C1\CC2(CCN(C)CC2)OC1C` (centres undefined): the Ki (commonly a dissociation constant, usually derived from enzyme kinetics or from competition with a known ligand) worked out at 9.5 µM.

On to `CC1OC2(CCN(C)CC2)C/C1=N\NC(=O)CCCC1CCCCC1` (centres undefined), for which the Ki came out at 13.6 µM.

As to `CC(C)C(=O)N/N=C1\CC2(CCN(C)CC2)OC1C` (centres undefined), the Ki was 28 µM.

Regarding `CC1OC2(CCN(C)CC2)C/C1=N\NC(=O)Cc1ccc2ccccc2c1` (centres undefined), the affinity, expressed as Ki, was 10 µM.

`CCCCCCC(=O)N/N=C1\CC2(CCN(C)CC2)OC1C` (centres undefined) showed a Ki of 25 µM.

For `CC1OC2(CCN(C)CC2)C/C1=N\NC(=O)c1ccc(C2CCCCC2)cc1` (centres undefined), the Ki came out at 4.8 µM.

As for `CC(=O)N/N=C1\CC2(CCNCC2)OC1C` (centres undefined), the inhibition constant Ki turned out to be 180 µM.

Take `CC1OC2(CCN(C)CC2)C/C1=N\NC(=O)Cc1ccccc1` (centres undefined): the Ki was determined as 30 µM.

`CCCCCCCCCC(=O)N/N=C1\CC2(CCN(C)CC2)OC1C` (centres undefined) gave a Ki of 14.4 µM.

Consider `CC1OC2(CCN(C)CC2)C/C1=N\NC(=O)C1CCCCC1` (centres undefined), for which affinity was put at a Ki of 38 µM.

As to `CCCCC(=O)N/N=C1\CC2(CCN(C)CC2)OC1C` (centres undefined), affinity was put at a Ki of 41 µM.

Compound `CCCCCCCC(=O)N(C)/N=C1\CC2(CCN(C)CC2)OC1C` (centres undefined) displayed a Ki of 8.8 µM.

For `CC1OC2(CCN(C)CC2)C/C1=N\NC(=O)CCCCC1CCCCC1` (centres undefined), the Ki amounted to 8 µM.

Compound `CC1OC2(CCN(C)CC2)C/C1=N\NC(=O)C(C)(C)C` (centres undefined) yielded a Ki of 15.2 µM.

`CC1OC2(CCN(C)CC2)C/C1=N\NC(=O)c1ccccc1` (centres undefined) gave a Ki of 78 µM.

Compound `CC1OC2(CCN(C)CC2)C/C1=N\NC(=O)CCCc1ccccc1` (centres undefined) gave a Ki of 34 µM.

As for `CCCCCC(=O)N/N=C1\CC2(CCN(C)CC2)OC1C` (centres undefined), the Ki came out at 25 µM.

In the case of `CCCCCCCCC(=O)N/N=C1\CC2(CCN(C)CC2)OC1C` (centres undefined), the Ki worked out at 9 µM.

Compound `CC(C)CC(=O)N/N=C1\CC2(CCN(C)CC2)OC1C` (centres undefined) gave a Ki of 90 µM.

For `CC(=O)N(C)/N=C1\CC2(CCN(C)CC2)OC1C` (centres undefined), the Ki is 60 µM.

In turn, `CCCC(=O)N(C)/N=C1\CC2(CCN(C)CC2)OC1C` (centres undefined) yielded a Ki of 16 µM.

`CC1OC2(CCN(C)CC2)C/C1=N\NC(=O)CC1CCCCC1` (centres undefined) displayed a Ki of 30 µM.

Consider `CC(=O)N/N=C1\CC2(CCN(C)CC2)OC1C` (centres undefined), for which the Ki amounted to 100 µM.

With `COC(=O)N/N=C1\CC2(CCN(C)CC2)OC1C` (centres undefined), the Ki was 25 µM.

In turn, `CCC(=O)N/N=C1\CC2(CCN(C)CC2)OC1C` (centres undefined) gave a Ki of 76 µM.

`CCCC(=O)N/N=C1\CC2(CCN(C)CC2)OC1C` (centres undefined) yielded a Ki of 65 µM.

The target of another test is Muscarinic acetylcholine receptor M3 (Cavia porcellus) (UniProt Q8VH26). Description: Compound was evaluated for intrinsic activity at M3 receptor by measuring isometric contractions of the isolated guinea pig trachea. The test is classed as tissue-based.
Muscarinic acetylcholine receptor M3 (Cavia porcellus), sequence (Q8VH26 1-587): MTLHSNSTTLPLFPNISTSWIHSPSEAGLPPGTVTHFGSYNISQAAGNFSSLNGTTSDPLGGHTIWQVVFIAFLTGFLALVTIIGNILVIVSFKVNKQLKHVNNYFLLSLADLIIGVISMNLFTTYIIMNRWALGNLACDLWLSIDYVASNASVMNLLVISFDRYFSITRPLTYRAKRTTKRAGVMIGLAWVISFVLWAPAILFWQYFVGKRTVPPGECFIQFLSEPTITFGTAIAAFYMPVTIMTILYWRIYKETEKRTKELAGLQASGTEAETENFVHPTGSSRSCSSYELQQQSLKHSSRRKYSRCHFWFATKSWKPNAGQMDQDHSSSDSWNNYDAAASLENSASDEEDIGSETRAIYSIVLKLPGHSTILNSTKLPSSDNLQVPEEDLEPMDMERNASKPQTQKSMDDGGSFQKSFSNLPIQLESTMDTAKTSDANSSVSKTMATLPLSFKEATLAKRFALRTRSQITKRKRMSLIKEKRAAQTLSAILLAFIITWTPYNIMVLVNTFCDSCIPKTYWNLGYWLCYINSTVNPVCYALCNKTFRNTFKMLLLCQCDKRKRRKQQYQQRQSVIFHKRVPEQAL
`CCCCCCCC(=O)N/N=C1\CC2(CCN(C)CC2)OC1C` (centres undefined): the Intrinsic activity stood at 81%.

In turn, `CC1OC2(CCN(C)CC2)C/C1=N\NC(=O)c1ccc(C2CCCCC2)cc1` (centres undefined) had an Intrinsic activity of 78%.

`CC(=O)N/N=C1\CC2(CCN(C)CC2)OC1C` (centres undefined) yielded an Intrinsic activity of 91%.
